Laboratory results taken from ChEMBL document CHEMBL4354784, “On the road to structure-based development of anti-virulence therapeutics targeting the type III secretion system injectisome” (Medchemcomm, 2019).

Tests used:
[1] = Inhibition of Pseudomonas aeruginosa MDM1912 T3SS assessed as reduction in ExoS-BLA fusion protein secretion by measuring hydrolysis of the chromogenic beta-lactamase substrate nitrocefin by colorimetric method
Pseudomonas aeruginosa [2] = test: Antimicrobial activity against Pseudomonas aeruginosa; format: functional, organism-based
Pseudomonas aeruginosa [3] = test: Antimicrobial activity against Pseudomonas aeruginosa infected in mouse assessed as increasing survival rate after 6 days (RVB = 20%); format: functional
[4] = system: Yersinia pseudotuberculosis; test: Inhibition of Yersinia pseudotuberculosis serotype 3 T3SS assessed as reduction in YopD protein expression at > 13 uM preincubated for 1 hr at 26 degC and subsequently incubated for 3 hrs at 37 degC by Western blot analysis relative to control
[5] = system: Yersinia pseudotuberculosis; test: Inhibition of Yersinia pseudotuberculosis serotype 3 T3SS assessed as reduction in YopD protein secretion at > 13 uM preincubated for 1 hr at 26 degC and subsequently incubated for 3 hrs at 37 degC by Western blot analysis relative to control
[6] = Inhibition of Yersinia pseudotuberculosis serotype 3 T3SS assessed as reduction in YopH protein secretion using p-nitro phenyl phosphat/2-(N-morpholino)ethanesulfonic acid as substrate preincubated for 1 hr at 26 degC and subsequently incubated for 2 hrs at 37 degC followed by addition of substrate and measured after 15 mins
Salmonella enterica = test: Antimicrobial activity against Salmonella enterica infected in mouse assessed as increasing survival rate on day 9 relative to control; format: functional

SMILES: O=C(N/N=C/c1cc(Br)cc(Br)c1O)c1ccc([N+](=O)[O-])cc1
- IC50 [1]: 0.8 µM

SMILES: NCCCNCCCCNCCCNC(=O)c1ccccc1C1=c2cc3c4c(c2Oc2c1cc1c5c2CCCN5CCC1)CCC[N+]=4CCC3
- EC50 (Pseudomonas aeruginosa [2]): 10 µM
- MIC50 (Pseudomonas aeruginosa [2]): > 10 µM
- Survival (Pseudomonas aeruginosa [3]): 100%

SMILES: Oc1ccc([C@@H]2c3c(O)cc(O)cc3[C@@H]3c4c(cc(O)cc4[C@H]2[C@@H]2c4cc(O)cc5c4[C@@H](c4cc(O)cc(O)c4[C@H]2c2ccc(O)cc2)[C@H](c2ccc(O)cc2)O5)O[C@H]3c2ccc(O)cc2)cc1
- inhibition [4]: 100%
- inhibition [5]: 100%
- IC50 [6]: > 10 µM

SMILES: Cc1ccc(C(C)C)c(O)c1 [THYMOL]
- Survival (Salmonella enterica): 70%
